Experimental data from ChEMBL document CHEMBL2016455, “5-Benzothiazole substituted pyrimidine derivatives as HCV replication (replicase) inhibitors” (Bioorg Med Chem Lett, 2012).
pEC50: −log10 of the molar value.

Columns and labels:
[1] = Cytotoxicity against human hepatoma cells assessed as decrease in RNA level after 3 days by RT-PCR analysis; format: cell-based; conditions: human hepatoma cells
[2] = Cytotoxicity against human hepatoma cells after 3 days by MTS assay; format: cell-based; conditions: human hepatoma cells
[3] = tested on: Hepatitis C virus; assay: Antiviral activity against Hepatitis C virus isolate con1 1b infected in human hepatoma cells replicon cells after 3 days by RT-PCR analysis; format: functional, organism-based, Hepacivirus hominis, genotype 1b Con1; conditions: Hepatitis C virus, genotype 1b Con1, 72 h
[4] = AUC (0 to 6 hrs) in rat at 10 mg/kg, po; format: ADME, organism-based; parameters: time < 6 hr, dose 10 mg/kg, route oral; conditions: plasma
[5] = tested on: Liver; assay: Drug uptake in rat liver per mg tissue at 10 mg/kg, po after 6 hrs; format: ADME, organism-based; parameters: dose 10 mg/kg, route oral; conditions: in vivo

pEC50 [3] | AUC(0-t) at 6 h [4] | Drug uptake [5] | SMILES | CC50 at 72 h [1] | CC50 at 72 h [2]
< 4.60 |  |  | Nc1nc(Cl)c(-c2ncco2)c(N[C@@H]2C[C@H](CO)[C@@H](O)[C@H]2O)n1 | > 25 µM | > 25 µM
5.15 |  |  | Nc1nc(Cl)c(-c2cc3ccccc3[nH]2)c(N[C@@H]2C[C@H](CO)[C@@H](O)[C@H]2O)n1 |  | 25 µM
7.40 | 0.3 µM·h | 63 ng/g | CCOC(=O)NCCNc1nc(C)c(-c2nc3ccccc3s2)c(N[C@@H]2C[C@H](CO)[C@@H](O)[C@H]2O)n1 | 12 µM | 19 µM
7.52 | 0.1 µM·h | 100 ng/g | Cc1nc(NCc2ccncc2)nc(N[C@@H]2C[C@H](CO)[C@@H](O)[C@H]2O)c1-c1nc2ccccc2s1 | 7 µM | 9 µM
6.05 |  |  | Cc1nc(NCCNC(=O)NC(C)(C)C)nc(N[C@@H]2C[C@H](CO)[C@@H](O)[C@H]2O)c1-c1nc2ccccc2s1 | > 25 µM | > 25 µM
5.52 |  |  | Nc1nc(Cl)c(-c2nccs2)c(N[C@@H]2C[C@H](CO)[C@@H](O)[C@H]2O)n1 | > 25 µM | > 25 µM
< 4.60 |  |  | Nc1nc(Cl)c(-c2ccccc2)c(N[C@@H]2C[C@H](CO)[C@@H](O)[C@H]2O)n1 |  | > 25 µM
7.52 | 2.1 µM·h | 2230 ng/g | Cc1nc(NCCCC(F)(F)F)nc(N[C@@H]2C[C@H](CO)[C@@H](O)[C@H]2O)c1-c1nc2ccccc2s1 | 3 µM | 4 µM
7.30 | 3.2 µM·h | 405 ng/g | Cc1nc(NCC2CC2)nc(N[C@@H]2C[C@H](CO)[C@@H](O)[C@H]2O)c1-c1nc2ccccc2s1 | 8 µM | 8 µM
7.22 | 2.3 µM·h | 510 ng/g | Cc1nc(NCC(C)C)nc(N[C@@H]2C[C@H](CO)[C@@H](O)[C@H]2O)c1-c1nc2ccccc2s1 | 10 µM | 10 µM
7.30 | 2.7 µM·h | 75 ng/g | CNc1nc(C)c(-c2nc3ccccc3s2)c(N[C@@H]2C[C@H](CO)[C@@H](O)[C@H]2O)n1 | > 25 µM | > 25 µM
6.19 |  |  | Nc1nc(Cl)c(-c2nc3ccc(Cl)cc3s2)c(N[C@@H]2C[C@H](CO)[C@@H](O)[C@H]2O)n1 | 16 µM | > 25 µM
7.52 | 2.2 µM·h | 430 ng/g | Cc1nc(NCc2ccccc2)nc(N[C@@H]2C[C@H](CO)[C@@H](O)[C@H]2O)c1-c1nc2ccccc2s1 | 9 µM | 7 µM
< 4.60 |  |  | Nc1nc(Cl)c(-c2cccs2)c(N[C@@H]2C[C@H](CO)[C@@H](O)[C@H]2O)n1 | > 25 µM | 
7.52 | 5.3 µM·h | 1080 ng/g | Cc1nc(NCCC(F)(F)F)nc(N[C@@H]2C[C@H](CO)[C@@H](O)[C@H]2O)c1-c1nc2ccccc2s1 | 9 µM | 9 µM
6.85 | 13 µM·h | 6570 ng/g | Cc1nc(N[C@@H](C)C(F)(F)F)nc(N[C@@H]2C[C@H](CO)[C@@H](O)[C@H]2O)c1-c1nc2ccccc2s1 | > 25 µM | > 25 µM
< 4.60 |  |  | Nc1nc(Cl)c(-c2cnccn2)c(N[C@@H]2C[C@H](CO)[C@@H](O)[C@H]2O)n1 |  | > 25 µM
7.00 | 6.2 µM·h | 515 ng/g | CCNc1nc(C)c(-c2nc3ccccc3s2)c(N[C@@H]2C[C@H](CO)[C@@H](O)[C@H]2O)n1 | 12 µM | > 25 µM
7.82 | 0.02 µM·h | 10 ng/g | Cc1nc(NCc2cccnc2)nc(N[C@@H]2C[C@H](CO)[C@@H](O)[C@H]2O)c1-c1nc2ccccc2s1 | 5 µM | 11 µM
6.51 |  |  | CCCNc1nc(C)c(-c2nc3ccccc3s2)c(N[C@@H]2C[C@H](CO)[C@@H](O)[C@H]2O)n1 | > 25 µM | > 25 µM
7.70 | 0.9 µM·h | 130 ng/g | Cc1nc(NCCOC(C)C)nc(N[C@@H]2C[C@H](CO)[C@@H](O)[C@H]2O)c1-c1nc2ccccc2s1 | 8 µM | 7 µM
7.00 |  |  | Cc1nc(N[C@H](C)C(F)(F)F)nc(N[C@@H]2C[C@H](CO)[C@@H](O)[C@H]2O)c1-c1nc2ccccc2s1 | 21 µM | 19 µM
6.74 |  |  | Nc1nc(Cl)c(-c2nc3ccc(F)cc3s2)c(N[C@@H]2C[C@H](CO)[C@@H](O)[C@H]2O)n1 | > 25 µM | > 25 µM
7.70 |  |  | CNc1ccc2sc(-c3c(Cl)nc(N)nc3N[C@@H]3C[C@H](CO)[C@@H](O)[C@H]3O)nc2c1 | 20 µM | 14 µM
7.30 |  |  | CNc1ccc2nc(-c3c(Cl)nc(N)nc3N[C@@H]3C[C@H](CO)[C@@H](O)[C@H]3O)sc2c1 | 6 µM | 16 µM

pEC50 [3] | AUC(0-t) at 6 h [4] | Drug uptake [5] | SMILES | CC50 at 72 h [1] | CC50 at 72 h [2]
7.46 | 2.4 µM·h | 400 ng/g | CCOCCNc1nc(C)c(-c2nc3ccccc3s2)c(N[C@@H]2C[C@H](CO)[C@@H](O)[C@H]2O)n1 | 18 µM | 18 µM
8.22 | 0.5 µM·h | 180 ng/g | Cc1nc(NCc2cccs2)nc(N[C@@H]2C[C@H](CO)[C@@H](O)[C@H]2O)c1-c1nc2ccccc2s1 | 6 µM | 5 µM
6.59 |  |  | Cc1nc(NCCNS(C)(=O)=O)nc(N[C@@H]2C[C@H](CO)[C@@H](O)[C@H]2O)c1-c1nc2ccccc2s1 | > 25 µM | > 25 µM
4.89 |  |  | CCc1nc(N(C)C)nc(N[C@@H]2C[C@H](CO)[C@@H](O)[C@H]2O)c1-c1nc2ccccc2s1 | > 25 µM | > 25 µM
6.55 | 1.6 µM·h | 970 ng/g | Cc1nc(Nc2ccccc2)nc(N[C@@H]2C[C@H](CO)[C@@H](O)[C@H]2O)c1-c1nc2ccccc2s1 | > 25 µM | > 25 µM
7.52 | 3.4 µM·h | 125 ng/g | Cc1nc(NCc2ccccn2)nc(N[C@@H]2C[C@H](CO)[C@@H](O)[C@H]2O)c1-c1nc2ccccc2s1 | 13 µM | 18 µM
< 4.60 |  |  | Nc1nc(Cl)c(-c2cc3ccccc3s2)c(N[C@@H]2C[C@H](CO)[C@@H](O)[C@H]2O)n1 | > 25 µM | 
5.35 |  |  | Cc1nc(Nc2ncco2)nc(N[C@@H]2C[C@H](CO)[C@@H](O)[C@H]2O)c1-c1nc2ccccc2s1 | > 25 µM | > 25 µM
6.15 | 12.8 µM·h | 12800 ng/g | OC[C@H]1C[C@@H](Nc2nc(NCC(F)(F)F)nc(C3CC3)c2-c2nc3ccccc3s2)[C@H](O)[C@@H]1O | > 25 µM | > 25 µM
7.40 | 0.2 µM·h | 370 ng/g | Cc1nc(NCCN2CCOCC2)nc(N[C@@H]2C[C@H](CO)[C@@H](O)[C@H]2O)c1-c1nc2ccccc2s1 | 25 µM | 25 µM
6.89 | 4.7 µM·h |  | Cc1nc(N)nc(N[C@@H]2C[C@H](CO)[C@@H](O)[C@H]2O)c1-c1nc2ccccc2s1 | 4 µM | 25 µM
7.46 |  |  | CN(C)c1ccc2sc(-c3c(Cl)nc(N)nc3N[C@@H]3C[C@H](CO)[C@@H](O)[C@H]3O)nc2c1 | 25 µM | 21 µM
7.70 | 0.08 µM·h |  | Nc1nc(Cl)c(-c2nc3ccccc3s2)c(N[C@@H]2C[C@H](CO)[C@@H](O)[C@H]2O)n1 | 14 µM | 18 µM
7.82 | 0.2 µM·h | 75 ng/g | Cc1nc(NCc2ccsc2)nc(N[C@@H]2C[C@H](CO)[C@@H](O)[C@H]2O)c1-c1nc2ccccc2s1 | 6 µM | 4 µM
6.60 | 0.5 µM·h | 150 ng/g | Cc1nc(NCC2CCC2)nc(N[C@@H]2C[C@H](CO)[C@@H](O)[C@H]2O)c1-c1nc2ccccc2s1 | > 25 µM | > 25 µM
7.35 |  |  | COc1ccc2nc(-c3c(Cl)nc(N)nc3N[C@@H]3C[C@H](CO)[C@@H](O)[C@H]3O)sc2c1 | > 25 µM | > 25 µM
6.11 |  |  | Cc1nc(Nc2nccs2)nc(N[C@@H]2C[C@H](CO)[C@@H](O)[C@H]2O)c1-c1nc2ccccc2s1 | 15 µM | 13 µM
6.48 |  |  | Cc1nc(Nc2ccncc2)nc(N[C@@H]2C[C@H](CO)[C@@H](O)[C@H]2O)c1-c1nc2ccccc2s1 | 7 µM | 7 µM
7.52 |  |  | CCOc1ccc2nc(-c3c(Cl)nc(N)nc3N[C@@H]3C[C@H](CO)[C@@H](O)[C@H]3O)sc2c1 | > 25 µM | 25 µM
6.00 |  |  | CN(C)c1ccc2nc(-c3c(Cl)nc(N)nc3N[C@@H]3C[C@H](CO)[C@@H](O)[C@H]3O)sc2c1 | > 25 µM | > 25 µM
7.30 |  |  | Nc1nc(Cl)c(-c2nc3ccccc3o2)c(N[C@@H]2C[C@H](CO)[C@@H](O)[C@H]2O)n1 | 12 µM | 15 µM
5.40 |  |  | Nc1nc(Cl)c(-c2ccco2)c(N[C@@H]2C[C@H](CO)[C@@H](O)[C@H]2O)n1 | > 25 µM | > 25 µM
< 4.60 |  |  | Nc1nc(Cl)c(-c2ccccn2)c(N[C@@H]2C[C@H](CO)[C@@H](O)[C@H]2O)n1 | > 25 µM | > 25 µM
6.52 |  |  | Nc1nc(Cl)c(-c2cc3ccccc3o2)c(N[C@@H]2C[C@H](CO)[C@@H](O)[C@H]2O)n1 |  | > 25 µM
